According to PubChem BioAssay AID328 (DTP/NCI, 2004):
Values joined by “and” are separate entries in the source; they are usually repeats but may differ in a detail not shown here. Equal entries are not always repeated. Inconclusive results and toxic doses are left out.

System: BDF1 mice, P388 leukemia ip, median survival T/C
Experiment: NCI In Vivo Anticancer Drug Screen. Data for tumor model P388 Leukemia (intraperitoneal) in B6D2F1 (BDF1) mice
Conditions: endpoint: median survival time, higher = longer survival
Method in brief: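 Each value expresses how treatment altered survival: treated-mouse outcome over vehicle-mouse outcome, both groups bearing the transplanted tumour.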

[1] = dose: 25.0 mg/kg/injection, schedule: Q01DX001 (ip), vehicle: saline with Tween-80
[2] = dose: 50.0 mg/kg/injection, schedule: Q01DX001 (ip), vehicle: saline with Tween-80
[3] = dose: 100.0 mg/kg/injection, schedule: Q01DX001 (ip), vehicle: saline with Tween-80
[4] = dose: 25.0 mg/kg/injection, schedule: Q01DX009 (ip), vehicle: saline
[5] = dose: 50.0 mg/kg/injection, schedule: Q01DX009 (ip), vehicle: saline
[6] = dose: 100.0 mg/kg/injection, schedule: Q01DX009 (ip), vehicle: saline
[7] = dose: 50.0 mg/kg/injection, schedule: Q01DX009 (ip), vehicle: saline with Tween-80
[8] = dose: 100.0 mg/kg/injection, schedule: Q01DX009 (ip), vehicle: saline with Tween-80
[9] = dose: 200.0 mg/kg/injection, schedule: Q01DX009 (ip), vehicle: saline with Tween-80
[10] = dose: 12.5 mg/kg/injection, schedule: Q04DX003 (ip), vehicle: saline
[11] = dose: 100.0 mg/kg/injection, schedule: Q04DX003 (ip), vehicle: Klucel (hydroxypropylcellulose) (HPC)
[12] = dose: 200.0 mg/kg/injection, schedule: Q04DX003 (ip), vehicle: Klucel (hydroxypropylcellulose) (HPC)
[13] = dose: 400.0 mg/kg/injection, schedule: Q04DX003 (ip), vehicle: Klucel (hydroxypropylcellulose) (HPC)
[14] = dose: 100.0 mg/kg/injection, schedule: Q04DX003 (ip), vehicle: saline with Tween-80
[15] = dose: 200.0 mg/kg/injection, schedule: Q04DX003 (ip), vehicle: saline with Tween-80
[16] = dose: 400.0 mg/kg/injection, schedule: Q04DX003 (ip), vehicle: saline with Tween-80
[17] = dose: 100.0 mg/kg/injection, schedule: Q01DX009 (ip), vehicle: Klucel (hydroxypropylcellulose) (HPC)
[18] = dose: 200.0 mg/kg/injection, schedule: Q01DX009 (ip), vehicle: Klucel (hydroxypropylcellulose) (HPC)
[19] = dose: 400.0 mg/kg/injection, schedule: Q01DX009 (ip), vehicle: Klucel (hydroxypropylcellulose) (HPC)
[20] = dose: 50.0 mg/kg/injection, schedule: Q01DX009 (ip), vehicle: Klucel (hydroxypropylcellulose) (HPC)
[21] = dose: 400.0 mg/kg/injection, schedule: Q01DX009 (ip), vehicle: saline with Tween-80
[22] = dose: 50.0 mg/kg/injection, schedule: Q01DX009 (ip), vehicle: other
[23] = dose: 100.0 mg/kg/injection, schedule: Q01DX009 (ip), vehicle: other
[24] = dose: 200.0 mg/kg/injection, schedule: Q01DX009 (ip), vehicle: other
[25] = dose: 25.0 mg/kg/injection, schedule: Q01DX009 (ip), vehicle: saline with Tween-80

Compound: CC(CCCN(CCCl)CCCl)Nc1ccnc2cc(Cl)ccc12 (stereo not drawn)
- T/C (dose: 0.5 mg/kg/injection, schedule: Q04DX003 (ip), vehicle: saline): 100 % of control
- T/C (dose: 0.66 mg/kg/injection, schedule: Q01DX009 (ip), vehicle: saline): 154 % of control
- T/C (dose: 1.0 mg/kg/injection, schedule: Q01DX009 (ip), vehicle: saline): 154 % of control
- T/C (dose: 1.0 mg/kg/injection, schedule: Q04DX003 (ip), vehicle: saline): 100 % of control
- T/C (dose: 2.0 mg/kg/injection, schedule: Q04DX003 (ip), vehicle: saline): 111 % of control

Compound: C=CCCCCCCCCC(=O)N(C)OC
- T/C [1]: 95 % of control
- T/C [2]: 109 % of control
- T/C [3]: 118 % of control

Compound: CS(=O)(=O)Nc1ccc(C(=O)CCN2CCCCCC2)cc1
- T/C [4]: 108 % of control and 110 % of control
- T/C [5]: 110 % of control and 112 % of control and 113 % of control
- T/C [6]: 117 % of control
- T/C (dose: 200.0 mg/kg/injection, schedule: Q01DX009 (ip), vehicle: saline): 117 % of control

Compound: COCCCNP(=S)(N1CC1)N1CC1
- T/C (dose: 16.5 mg/kg/injection, schedule: Q04DX003 (ip), vehicle: saline with Tween-80): 163 % of control and 195 % of control
- T/C (dose: 25.0 mg/kg/injection, schedule: Q04DX003 (ip), vehicle: saline with Tween-80): 181 % of control and 218 % of control
- T/C (dose: 37.5 mg/kg/injection, schedule: Q04DX003 (ip), vehicle: saline with Tween-80): 104 % of control and 109 % of control

Compound: O=C1NC(C2CCC3CN32)C(=O)NC1C1CCC2CN21 (stereo not drawn)
- T/C (dose: 0.05 mg/kg/injection, schedule: Q01DX009 (ip), vehicle: saline): 91 % of control and 118 % of control
- T/C (dose: 0.1 mg/kg/injection, schedule: Q01DX009 (ip), vehicle: saline): 96 % of control
- T/C (dose: 0.2 mg/kg/injection, schedule: Q01DX009 (ip), vehicle: saline): 107 % of control
- T/C (dose: 0.8 mg/kg/injection, schedule: Q01DX009 (ip), vehicle: saline): 164 % of control and 173 % of control

Compound: O=C1c2ccccc2C(O)(c2ccccc2)c2c(Cl)cccc21 (stereo not drawn)
- T/C [7]: 104 % of control
- T/C [8]: 111 % of control
- T/C [9]: 95 % of control

Compound: CC(c1ccccc1)[n+]1ccccc1C1OCCO1 (stereo not drawn)
- T/C (dose: 6.25 mg/kg/injection, schedule: Q04DX003 (ip), vehicle: saline): 100 % of control
- T/C [10]: 97 % of control

Compound: C/C(N=Nc1ccccc1[N+](=O)[O-])=N\Nc1ccccc1
- T/C [11]: 122 % of control
- T/C [12]: 122 % of control
- T/C [13]: 113 % of control

Compound: CCCNC(=O)Nc1ccc(C)c(Cl)c1
- T/C [14]: 104 % of control
- T/C [15]: 100 % of control
- T/C [16]: 95 % of control

Compound: CCOC(=O)/C=C\c1c(OC)nc2ccccn2c1=O (tested in a mixture with another compound)
- T/C [17]: 116 % of control
- T/C [11]: 122 % of control
- T/C [18]: 121 % of control
- T/C [12]: 109 % of control
- T/C [19]: 111 % of control
- T/C [13]: 113 % of control

Compound: CCOC(=O)CS(=O)(=O)c1ccc(NC(C)=O)cc1
- T/C [20]: 104 % of control
- T/C [17]: 91 % of control and 120 % of control
- T/C [18]: 96 % of control and 115 % of control
- T/C [19]: 105 % of control

Compound: COc1ccc(/C=C/C(=O)c2ccc(OC)c(OC)c2)cc1OC
- T/C [8]: 90 % of control
- T/C [9]: 104 % of control
- T/C [21]: 118 % of control

Compound: Cc1ccc(C[N+](C)(C)C)c2ccccc12
- T/C [10]: 107 % of control
- T/C (dose: 25.0 mg/kg/injection, schedule: Q04DX003 (ip), vehicle: saline): 105 % of control
- T/C (dose: 50.0 mg/kg/injection, schedule: Q04DX003 (ip), vehicle: saline): 96 % of control

Compound: CCN(CC)CCCC(C)Nc1ccnc2cc(Cl)cnc12 (stereo not drawn) (tested in a mixture with another compound)
- T/C [7]: 107 % of control
- T/C [8]: 114 % of control
- T/C [9]: 98 % of control

Compound: O=S(c1ccccc1)C1Cc2ccccc2C1Cl (stereo not drawn)
- T/C [22]: 107 % of control
- T/C [23]: 107 % of control
- T/C [24]: 115 % of control

Compound: Cc1ccc(S(=O)CC(Cl)c2ccccc2)cc1 (stereo not drawn)
- T/C [22]: 105 % of control
- T/C [23]: 106 % of control
- T/C [24]: 100 % of control

Compound: N#CSCc1ccc(OCc2ccccc2)cc1
- T/C [7]: 100 % of control
- T/C [8]: 103 % of control
- T/C [9]: 112 % of control

Compound: CCCSc1ncnc2nc[nH]c12
- T/C (dose: 31.3 mg/kg/injection, schedule: Q01DX010 (ip), vehicle: saline): 95 % of control and 120 % of control
- T/C (dose: 62.5 mg/kg/injection, schedule: Q01DX010 (ip), vehicle: saline): 100 % of control and 105 % of control
- T/C (dose: 125.0 mg/kg/injection, schedule: Q01DX010 (ip), vehicle: saline): 95 % of control and 100 % of control

Compound: Cn1c([N+](=O)[O-])cnc1CSC(=S)N1CCN(C(=S)SCc2ncc([N+](=O)[O-])n2C)CC1
- T/C [25]: 106 % of control
- T/C [7]: 103 % of control
- T/C [8]: 103 % of control

Compound: NS(=O)(=O)c1ccc(NC2OCC(O)C(O)C2O)cc1 (stereo not drawn)
- T/C [8]: 95 % of control
- T/C [9]: 90 % of control
- T/C [21]: 100 % of control

Compound: COc1cccc2c1C(=O)c1c(O)c3c(c(O)c1C2=O)C[C@@](O)(/C(C)=N/NC(=O)c1ccc(-c2ccccc2)cc1)C[C@@H]3OC1CC(N)C(O)C(C)O1 (stereo partly drawn)
- T/C (dose: 0.78 mg/kg/injection, schedule: Q01DX009 (ip), vehicle: water): 107 % of control
- T/C (dose: 1.56 mg/kg/injection, schedule: Q01DX009 (ip), vehicle: water): 122 % of control
- T/C (dose: 3.12 mg/kg/injection, schedule: Q01DX009 (ip), vehicle: water): 224 % of control
- T/C (dose: 6.25 mg/kg/injection, schedule: Q01DX009 (ip), vehicle: water): 157 % of control
- T/C (dose: 12.5 mg/kg/injection, schedule: Q01DX009 (ip), vehicle: water): 169 % of control

Compound: Clc1ccc(CNc2ncnc3[nH]ncc23)c(Cl)c1
- T/C [7]: 104 % of control
- T/C [8]: 100 % of control
- T/C [9]: 90 % of control

Compound: O=CC(OC(=O)c1ccccc1)C(OC(=O)c1ccccc1)C(COC(c1ccccc1)(c1ccccc1)c1ccccc1)OC(=O)c1ccccc1 (stereo not drawn)
- T/C [25]: 110 % of control
- T/C [7]: 110 % of control
- T/C [8]: 120 % of control
- T/C [9]: 100 % of control and 108 % of control

Compound: N#Cc1ccc(/C=C/C(=O)c2ccccc2)cc1
- T/C [17]: 91 % of control
- T/C [18]: 116 % of control
- T/C [19]: 107 % of control

Compound: C1CC[N+]2(CC1)CCC2
- T/C [4]: 113 % of control
- T/C [5]: 109 % of control
- T/C [6]: 100 % of control

Compound: CCC(=O)NC(C(=O)NC(C(=O)NC(CC(C)C)C(O)CC(=O)NC(C)C(=O)NC(CC(C)C)C(O)CC(=O)O)C(C)C)C(C)C (stereo not drawn)
- T/C (dose: 12.5 mg/kg/injection, schedule: Q01DX009 (ip), vehicle: saline with Tween-80): 100 % of control
- T/C [25]: 109 % of control
- T/C [7]: 109 % of control and 114 % of control
- T/C [8]: 94 % of control

Compound: O=S1(=O)CCN(C2CCCC2)CC1
- T/C [20]: 104 % of control
- T/C [17]: 121 % of control
- T/C [18]: 111 % of control

Compound: CCCCNC(C)(C)C(SC(C)=O)c1ccc(Cl)cc1 (stereo not drawn)
- T/C [14]: 108 % of control
- T/C [15]: 112 % of control

Compound: CSc1ncc2ncn(C3OC(CO)C(O)C3O)c2n1 (stereo not drawn)
- T/C (dose: 100.0 mg/kg/injection, schedule: Q01DX001 (ip), vehicle: Klucel (hydroxypropylcellulose) (HPC)): 86 % of control
- T/C [17]: 110 % of control
- T/C [8]: 86 % of control
- T/C [11]: 95 % of control
- T/C [14]: 95 % of control
- T/C (dose: 200.0 mg/kg/injection, schedule: Q01DX001 (ip), vehicle: Klucel (hydroxypropylcellulose) (HPC)): 100 % of control
- T/C [18]: 105 % of control
- T/C [9]: 95 % of control
- T/C [12]: 100 % of control
- T/C [15]: 95 % of control
- T/C (dose: 400.0 mg/kg/injection, schedule: Q01DX001 (ip), vehicle: Klucel (hydroxypropylcellulose) (HPC)): 109 % of control
- T/C [19]: 105 % of control
- T/C [21]: 86 % of control
- T/C [13]: 100 % of control
- T/C [16]: 100 % of control

Compound: C1=C(c2ccccc2)CS1
- T/C [1]: 104 % of control
- T/C [2]: 101 % of control

Compound: COC(OC)C1=C(Cl)C(Cl)=C(Cl)/C1=N\Nc1ccccc1
- T/C [3]: 109 % of control
- T/C (dose: 200.0 mg/kg/injection, schedule: Q01DX001 (ip), vehicle: saline with Tween-80): 86 % of control
